What was measured:
[1] = system: skin at the elbow site of AA; assay: Organ culture of AA elbow skin with Torin 1: Fontana-Masson melanin staining and image analysis; format: cell-based, human; conditions: Torin 1 1 μM, tissue culture 5 days, vs absence of Torin 1; n=4, paired t-test p<0.05
Protocol: Meanwhile, the sections were subjected to melanin staining (Melanin Stain), separately. The sections were immersed in a 4% PFA/PBS solution for 10 minutes to be fixed. The fixed sections were washed with distilled water (DDW) for 5 minutes 3 times in total, and thereafter a Fontana-ammonia silver solution (Muto) was added dropwise thereto, followed by treatment at room temperature for 30 minutes. Then, the sections were washed with DDW for 5 minutes 3 times in total, and a Kernechtrot solution (Muto) was added dropwise thereto, followed by treatment for 3 minutes, for nuclear staining. The excess staining solution was washed away with DDW, followed by dehydration, clearing, and mounting with Malinol (Muto).
From skin at the elbow site of four AA women, skin tissues were collected through punch biopsy by a dermatologist. The collected tissues were halved with a scalpel, and the tissues were cultured for 5 days in the presence or absence of mTORC1 inhibitor, Torin 1 (Cayman Chemical, #10997) to a final concentration of 1 μM. […] Further, melanin was visualized by Fontana-Masson staining, and the epidermal stratum corneum thickness and the melanin deposition area were calculated using an image analysis software (Image J).

mTORC1 = assay: Organ culture of AA elbow skin with Torin 1: immunohistochemical analysis of mTOR phosphorylation; format: cell-based, human; conditions: Torin 1 1 μM, tissue culture 5 days; paired t-test p<0.05
Protocol: The technique of immunohistochemical analyses will be described. The sections were immersed in acetone or a 4% PFA/PBS solution for 10 minutes to be fixed. The fixed sections were washed with PBS-T (0.05% Tween-20/PBS) for 5 minutes 3 times in total and were blocked with a 1% BSA/PBS solution for 30 minutes. Subsequently, after the sections were subjected to overnight treatment at 4° C. with a primary antibody and were washed with PBS for 5 minutes 3 times in total, a secondary antibody (Jackson ImmunoResearch, 1:100 or 1:200) fluorescent labeled with FITC, RR-X, or Cy3 was added dropwise thereto, followed by treatment at 37° C. for 30 minutes. […]
The produced preparations were subjected to tissue observation and photographing using an inverted microscope (AxioVision, manufactured by Carl Zeiss Vision International GmbH) or a confocal laser microscope (LSM710, manufactured by Carl Zeiss Vision International GmbH). The captured images were analyzed using an image analysis software, and the expression levels of Pmel17, which is a marker of melanocyte growth and activation, cell proliferation marker Ki67, Filaggrin (FLG), Loricrin (LOR), and Transglutaminase 1 (TGM1), which are keratinization-related factors, were quantitated. Further, using RGB Profile Plot, which is an image analysis software, the fluorescence intensity distribution in the skin depth direction was investigated. […]

[2] = system: skin at the elbow site of AA; assay: Organ culture of AA elbow skin with Torin 1: immunohistochemical analyses of autophagy-related, keratinization and proliferation markers; format: cell-based, human; conditions: Torin 1 1 μM, tissue culture 5 days
Protocol: The technique of immunohistochemical analyses will be described. The sections were immersed in acetone or a 4% PFA/PBS solution for 10 minutes to be fixed. The fixed sections were washed with PBS-T (0.05% Tween-20/PBS) for 5 minutes 3 times in total and were blocked with a 1% BSA/PBS solution for 30 minutes. Subsequently, after the sections were subjected to overnight treatment at 4° C. with a primary antibody and were washed with PBS for 5 minutes 3 times in total, a secondary antibody (Jackson ImmunoResearch, 1:100 or 1:200) fluorescent labeled with FITC, RR-X, or Cy3 was added dropwise thereto, followed by treatment at 37° C. for 30 minutes. Thereafter, the sections were washed with PBS-T for 5 minutes 3 times in total and with PBS for 5 minutes once, mounted by aqueous encapsulant containing a nuclear-staining agent (H-1200: Vector Laboratories). Refer to Table 1 for the type of primary antibody, the tissue fixation conditions, and the concentration used.
The produced preparations were subjected to tissue observation and photographing using an inverted microscope (AxioVision, manufactured by Carl Zeiss Vision International GmbH) or a confocal laser microscope (LSM710, manufactured by Carl Zeiss Vision International GmbH). The captured images were analyzed using an image analysis software, and the expression levels of Pmel17, which is a marker of melanocyte growth and activation, cell proliferation marker Ki67, Filaggrin (FLG), Loricrin (LOR), and Transglutaminase 1 (TGM1), which are keratinization-related factors, were quantitated. Further, using RGB Profile Plot, which is an image analysis software, the fluorescence intensity distribution in the skin depth direction was investigated. The image analysis software used was “Image J” (available from imagej.nih.gov/ij/).
From skin at the elbow site of four AA women, skin tissues were collected through punch biopsy by a dermatologist. The collected tissues were halved with a scalpel, and the tissues were cultured for 5 days in the presence or absence of mTORC1 inhibitor, Torin 1 (Cayman Chemical, #10997) to a final concentration of 1 μM. In the tissue culture, a culture medium obtained by adding 10 v/v % Fetal Bovine Serum (FBS) and antibiotics (Antibiotic-Antimycotic) to Advanced-DMEM was used (both were from Life Technologies). After the completion of culture, frozen samples were rapidly produced, and immunohistochemical analyses were performed by the same procedure as in Example 1 (2) using their sections. Refer to Table 3 for the type of primary antibody, the tissue fixation conditions, and the concentration used. Further, melanin was visualized by Fontana-Masson staining, and the epidermal stratum corneum thickness and the melanin deposition area were calculated using an image analysis software (Image J).

[3] = system: cultured keratinocytes derived from human neonatal foreskin; assay: Gene expression by quantitative PCR in Torin 1-treated cultured keratinocytes; format: cell-based; conditions: 24 hours culture, ANOVA, Dunnett test p<0.05
Protocol: Torin 1 was added to cultured keratinocytes derived from human neonatal foreskin, and the mixture was cultured for 24 hours in an environment of 37° C. and 5% CO2. For the cell culture, a culture medium obtained by adding a predetermined growth additive (Humedia KG2, manufactured by KURABO INDUSTRIES LTD.) to Epilife culture medium (Life Technologies) was used. RNA was extracted from the keratinocytes, and the gene expression was analyzed by quantitative PCR using a Taqman probe (Life Technologies).

[4] = system: keratinocytes (neonatal foreskin); assay: Autophagy-activating action: LC3-II protein in keratinocytes by Western blotting; format: cell-based, human; conditions: 48 hours culture, same toosendanin concentration in both media, control solvent (ethanol)

Structure (SMILES) | amount of melanin (melanin deposition area) [1] | epidermal stratum corneum thickness [1] | phosphorylation of mTOR (p-mTOR to mTOR) (mTORC1) | localization of ATG5-ATG12 in the epidermis [2] | localization of ATG16L1 in the epidermis [2] | distribution of Filaggrin (FLG) in the epidermis ([2]; vs untreated skin) | distribution of Loricrin (LOR) in the epidermis ([2]; vs untreated skin) | distribution of Transglutaminase 1 (TGM1) in the epidermis ([2]; vs untreated skin) | proliferating cells (number of Ki67 positive cells) ([2]; vs untreated skin) | LC3 protein ([2]; paired t-test p<0.05) | p62 protein aggregation ([2]; paired t-test p<0.05) | gene expression of Involucrin (IVL) ([3]; depending on the dose) | gene expression of TGM1 ([3]; depending on the dose) | gene expression of SKP2 [3] | LC3-II protein in the cells [4]
CCC(=O)N1CCN(c2ccc(-n3c(=O)ccc4cnc5ccc(-c6cnc7ccccc7c6)cc5c43)cc2C(F)(F)F)CC1 [Torin 1] | statistically significantly decreased | statistically significantly decreased | inhibition of phosphorylation of mTOR was observed | the localization was normalized | the localization was normalized | restored to be localized by the epidermal granular layer | restored to be localized by the epidermal granular layer | restored to be localized by the epidermal granular layer | a decrease in proliferating cells was confirmed | increased | decreased | statistically significantly increased | statistically significantly increased | statistically significantly reducing | –
CC(=O)O[C@@H]1C[C@H](O)[C@@]23CO[C@@H](O)[C@]1(C)[C@@H]2C[C@@H](O)[C@]1(C)[C@@H]3C(=O)[C@H](OC(C)=O)[C@@]2(C)[C@H](c3ccoc3)C[C@H]3O[C@]321 [toosendanin] | – | – | – | – | – | – | – | – | – | – | – | – | – | – | LC3-II protein-increasing actions

— patent US20190015467A1, “AGENT FOR PREVENTING OR AMELIORATING UNEVEN SKIN TONE” (KAO CORPORATION, priority 2017, published 2019)
